Laboratory results as given in patent US10143198B2, “Use of propyl propane thiosulfinate and propyl propane thiosulfonate for the prevention and reduction of parasites in aquatic animals” (Investfood, LLC, priority 2013, dated 2018).

Legend:
Icthyobodo necator = test: oral treatment of Ichthyobodosis in rainbow trout, PTSO administered into feed; assay type: in vivo; conditions: for % infestation High / % infestation Low / % infestation minimal / % infestation Moderate / % infestation zero: 24 hours after end of assay; for % infestation High: High = more than 50 individuals per microscope field; for % infestation Low: Low = more than 1 individual, less than 10 per field; for % infestation minimal: Minimal = only 1 individual detected; for % infestation Moderate: Moderate = 10 to 50 per field; for % infestation zero: Zero = not detected
Protocol: In this example, a study of oral treatments of Ichthyobodosis in rainbow trout with different concentrations of Propyl propane thiosulphonate (PTSO) administered into feed was conducted.
Rainbow trout Oncornynchus mykiss were obtained from a local fish farm and acclimatized for at least 10 days before assay in 100 l tanks with aeration in closed systems of water (15±2° C., pH 7-7.5). The natural light-dark cycle was simulated (12 h light: 12 h dark). Fish were fed twice per day with a commercial feed (EFICO, Biomar, Spain). Parasite-free fish were experimentally infested by holding the parasite-free fish 25 days in a 100 l tank that also contained fish showing high-intensity infestation (20 uninfected fish to 10 infected fish).
Fish were anaesthetized by immersion in bath with 100 ppm of Tricaine methanesulfonate until respiration became weak. A mucus sample was then taken by gently scraping the body surface after examination of a sample area of 24×32 mm. The sample was mixed with 30 μl of distilled water on a slide, cover-slipped and examined to optic microscopy (400×).
Each treatment was assayed in 20 infected fish maintained in 100 L tanks with aeration in closed systems of water. The fish received feed containing three different treatments. The first group received a diet with 100 ppm of Propyl propane thiosulphonate (PTSO), the second received a diet supplemented with 300 ppm of PTSO, and the third received a diet with 300 ppm of metronidazole. All treatments were applied during a 10 day period. In all cases, feed was supplied at 2% of total body weight per day. Simultaneously, a positive control assay (also on 20 infected fish treated identically, but without any PTSO) and negative control assay (with 20 uninfected animals) were performed. Tanks conditions were identical to those during the acclimatization period.
Throughout the assay period the fish were monitored regularly to ensure that the fish were eating the food, and to check for signs of toxicity.
Of note, infestation intensity was based on a 5-point scale, as follows: Zero equals Ichthyobodo necator not being detected in the sample; Minimal equals only 1 individual of I. necator being detected in the sample; Low equals more than 1 individual of parasite being detected in the sample, the average number per microscope field being less than 10; Moderate equals an average number of individuals per microscope field of 10 to 50; High equals an average number of individuals per microscope field of more than 50.

[1] = test system: L3 larvae of Hysterotylacium aduncum; conditions: 75 ppm, in vitro, 36° C.
From the text: (§1) The objective of example 3 was to examine the activity of propyl propane thiosulphonate (PTSO) and propyl propane thiosulfinate (PTS) against L3 larvae of type I Anisakis and Hysterotylacium aduncum to explore the possible use of these compounds for prophylaxis treatments.
(§2) L3 of Anisakis type I and Hysterotylacium aduncum were collected by dissecting the fish Micromesistius poutassou (blue whiting) and Trachurus trachurus (mackerel) fished in the Cantabric sea, and selecting only larvae with a length greater than (>) 2.0 cm in the case of Anisakis, and greater than 0.8 cm for Hysterotylacium.
(§3) Larvae were axenised in antibiotic solution (Iglesias et al., 1997), introduced into polystyrene plate wells with 2 ml of sterile solution of 0.9% NaCl and the different concentrations of PTS alone, PTSO alone, and both PTS and PTSO (75, 200, 300 and 500 ppm) and then incubated at 36° C. in a 5% CO2 atmosphere. As controls, larvae were assayed without test compound under identical experimental conditions, and using only the solvent DMSO 1% (Dimethyl sulfoxide). Larvae were examined under stereoscopic microscope at 4, 8, 24, and 48 hours to test the biocidal effect of the compounds. Larvae with no mobility at all were considered dead. Each dilution was tested three times on larvae from fish captured on different days.

[2] = test system: L3 larvae of Anisakis type I; conditions: 200, 300 and 500 ppm, in vitro, 36° C.
From the text: as §1, §2, §3

Compound | % infestation High (Icthyobodo necator; 300 ppm in feed for 10 days) | % infestation Low (Icthyobodo necator; 300 ppm in feed for 10 days) | % infestation minimal (Icthyobodo necator; 300 ppm in feed for 10 days) | % infestation Moderate (Icthyobodo necator; 300 ppm in feed for 10 days) | % infestation zero (Icthyobodo necator; 300 ppm in feed for 10 days) | anti-parasitic activity (mortality) [1] | anti-parasitic activity (mortality) [2] | % infestation High (Icthyobodo necator; 100 ppm in feed for 10 days) | % infestation Low (Icthyobodo necator; 100 ppm in feed for 10 days) | % infestation minimal (Icthyobodo necator; 100 ppm in feed for 10 days) | % infestation Moderate (Icthyobodo necator; 100 ppm in feed for 10 days) | % infestation zero (Icthyobodo necator; 100 ppm in feed for 10 days) | antiparasitic activity, infestation intensity (Icthyobodo necator; oral in feed)
Cc1ncc([N+](=O)[O-])n1CCO [Metronidazole, metronidazole, reference compound] | 15% | 7% | 12% | 20% | 46% |  |  |  |  |  |  |  | 
CCCS[S+]([O-])CCC (centres unmarked) [PTS, propyl propane thiosulfinate] |  |  |  |  |  | significant anti-parasitic activity | significant anti-parasitic activity |  |  |  |  |  | 
CCCSS(=O)(=O)CCC [PTSO, propyl propane thiosulfonate] | 25% | 8% | 5% | 7% | 55% | significant anti-parasitic activity | significant anti-parasitic activity | 35% | 18% | 12% | 30% | 5% | significant reduction of infestation intensity
